Test results published in article PMC11378297, “Discovery and Profiling of New Multimodal Phenylglycinamide Derivatives as Potent Antiseizure and Antinociceptive Drug Candidates” (ACS Chemical Neuroscience, 2024).
Like-named read-outs stand apart in the source and are kept apart here. Marks after values point to notes of the source that are not given here.

Assays:
[1] = tested on: 6 Hz (32 mA) seizures, mice; conditions: i.p., cited from earlier work
[2] = tested on: 6 Hz (44 mA) seizures, mice; conditions: i.p., cited from earlier work
[3] = tested on: maximal electroshock (MES) seizures, mice; conditions: i.p., cited from earlier work
[4] = tested on: mice (motor coordination); conditions: racemates, chimney test, i.p.; cited from earlier work
[5] = tested on: mice (motor coordination); conditions: reference ASMs, rotarod test, i.p.; cited from earlier work
[6] = tested on: glutamate and GABA concentrations in brain; test: glutamate and GABA concentrations in hippocampus and cortex of PTZ-kindled mice; type: in vivo, mouse
From the text: After behavioral tests (FST, PTZ-induced kindling), we determined the changes in glutamate and GABA concentrations in the hippocampus and cortex. Since exposure to the FST can evoke various neurochemical alterations, two additional groups were employed in this experiment, i.e., control nonkindled mice that were exposed to the FST and naïve mice. No marked differences in both glutamate and GABA concentrations in the hippocampus were observed (Figure 5A). […] We found a significant increase in glutamate concentration in the cortex of mice subjected to the FST (p < 0.05 vs naive mice). […] Given that seizures are typically accompanied by elevated extracellular glutamate levels (an excitatory neurotransmitter), a decreased glutamate concentration in the cortex of kindled animals may appear to be an unexpected outcome. It should be highlighted, however, that the concentrations of glutamate and GABA in tissue homogenates rather than dialysate were measured in brain samples acquired 24 h following the previous PTZ dose, which may have an impact on the outcomes. On the other hand, decreased glutamate levels could be caused by the up-regulation of glutamate transporters, as the expression of glutamate transporters can increase following seizures.[48] For example, an increased expression of hippocampal GLT-1 was observed 24 h after kainic acid-induced status epilepticus in mice and PTZ-induced kindling in rats.[49] Moreover, similar to our findings, Szyndler et al.([50]) found decreased glutamate concentrations, with no changes in GABA concentrations, in homogenates of the hippocampus, striatum, and prefrontal cortex of PTZ-kindled rats.
Figure 5 Changes in glutamate and GABA concentrations in the hippocampus (A) and cortex (B). Data are shown as means + SD (n = 9–14 animals). Statistical significance was evaluated by one-way ANOVA followed by Tukey’s post hoc test: *p < 0.05, **p < 0.01, ***p < 0.001 (GraphPad Prism 8.4.3).
GABA and glutamate concentrations were determined using liquid chromatography tandem mass spectrometry (LC-MS/MS) in the mouse prefrontal cortex and hippocampus. Toronto Research Chemicals Inc. was the source of the standards for both analytes (Toronto, ON, Canada). GABA and glutamate stock standard solutions were made in methanol and deionized water, respectively, and kept cold at 4 °C. The stock solutions were suitably diluted to create a range of solution combinations with the appropriate concentrations. Prior to analysis, a hand-held pestle and glass tube homogenizer (Potter–Elvehjem PTFE pestle and glass tube, Sigma-Aldrich, St. Louis, MO, USA) were used to homogenize mouse brains in distilled water at a ratio of 50 μL/mg. Following a 10 min centrifugation at 8000g for 10 min at 4 °C, homogenates were diluted 10 times with 0.1% formic acid in MeCN from the supernatant. Samples (10 μL) were deproteinized with 80 μL of 0.1% formic acid in MeCN by shaking for 10 min (IKA Vibrax VXR, IKA Werke GmbH & Co. KG, Staufen im Breisgau, Germany) and centrifuged for 5 min at the speed of 8000g (Eppendorf miniSpin centrifuge) after isotope-labeled GABA-d6 and glutamate-d5 (Toronto Research Chemicals Inc., Toronto, ON, Canada) were added as internal standards (10 μL at the concentration of 500 ng/mL). The autosampler vials were filled with the acquired supernatants. […]

[7] = tested on: mature-BDNF (mBDNF) expression; test: mBDNF expression in hippocampus and cortex of PTZ-kindled mice (Western blot); type: in vivo, mouse; conditions: VPA repeated (150 mg/kg), p < 0.01 vs PTZ kindling control
From the text: However, there are also few reports showing opposite findings.[51],[52] […] No changes in the expression of the nerve growth factor (NGF) were observed (Figure 6D–F).
Figure 6 Changes in mature-BDNF (mBDNF) expression in hippocampus (A) and cortex (C) and in proNGF expression in hippocampus (D) and cortex (F) with representative immunoblots, together with total protein amount visualized by the stain-free technique (B,E). Data are shown as means of relative expressions + SD (n = 8). Statistical significance was evaluated by one-way ANOVA followed by Tukey’s post hoc test: **p < 0.01 (GraphPad Prism 8.4.3).
The Western Blot method was used to assess the expression of proNGF and mBDNF in the mouse brain and hippocampal tissues. Using a bead homogenizer (Bead Ruptor Elite, Omni International, USA), the cortical and hippocampal regions of the mouse brain were weighted and homogenized at a ratio of 9 μL/mg in 2% SDS supplemented with a cocktail of protease (Thermo Scientific, Walthman, MA, USA) and phosphatase inhibitors (Sigma-Aldrich, St. Louis, MO, USA). Samples were then centrifuged at 10,000g for 10 min at 4 °C after being denatured for 10 min at 95 °C. […] One-way ANOVA with Tukey’s post hoc test was utilized to examine changes in the relative expression of the proteins that were evaluated.

[8] = tested on: capsaicin-induced pain, mice; design: method as in PMID 28934547; conditions: 200 mg/kg; cited from earlier work
[9] = tested on: PTZ-induced kindling, mice; test: PTZ-induced kindling model; type: in vivo, mouse; conditions: 150 mg/kg i.p. repeatedly, positive control
Experimental: We investigated the impact of lead compound (R)-32 on PTZ-induced kindling in mice to further assess its antiseizure potential (Figure 3). […] The PTZ-induced kindling model is widely recognized as a useful method to induce chronic increase in susceptibility to epileptic seizures.
Figure 3 Effect of repeated treatment with (R)-32 in PTZ-induced kindling model in mice. […] Data are presented as means of seizure severity (n = 10–15 animals). Statistical significance was evaluated by a mixed effects model for repeated measures followed by Tukey’s post hoc test: **p < 0.01, […] vs control group (GraphPad Prism 8.4.3).
The procedure was performed as described in detail in our previous studies.[88],[89] […] Seizures were induced three times a week by i.p. administration of PTZ at a subconvulsive dose of 40 mg/kg. […] The seizure severity was scored using the modified Racine’s scale. […] The locomotor activity test, the elevated plus maze test, and the FST were performed 24 h after the last PTZ injection, according to the methods described in detail elsewhere. After completion of behavioral tests, animals were sacrificed. Hippocampi and cortices were dissected from the brains, frozen, and stored at −80 °C until assay. Following each PTZ injection, the mean seizure severity scores were determined for each experimental group. A mixed effects model for repeated measurements was used for analysis, along with Tukey’s post hoc test. The percentage of fully kindled mice was compared using Fisher’s exact probability test.

[10] = tested on: formalin-induced pain, mice; design: method as in PMID 28934547; conditions: previously tested in the authors' laboratory; cited from earlier work
[11] = hepatotoxicity, HepG2 cell viability; type: cell-based, human; conditions: human, HepG2 hepatoma cells; 1 μM, 72 h of incubation (Figure 11)
Experimental: The hepatotoxicity potential was assessed with the HepG2 cell line and the reference cytostatic drug doxorubicin.
The results are presented as means + SD. Statistical significance was evaluated by one-way ANOVA, followed by Bonferroni’s multiple comparison post hoc test (Graph Pad Prism 8.0.1 software, San Diego, CA, USA): *p < 0.05, ***p < 0.001, ****p < 0.0001 vs negative control (DMSO 1% in growth media).

[12] = racemates, pretreatment time 0.5 h
[13] = reference ASMs, pretreatment time 0.5 h (LCS, VPA) or 1.0 h (LEV, CBD)

For `CC(=O)NC(C(=O)N1CCN(c2cccc(C(F)(F)F)c2)CC1)c1ccccc1` (stereo not drawn) [KJ-5], the “ED50 6 Hz (32 mA)” value [1, 12] is listed as 29.9 mg/kg, the “ED50 6 Hz (44 mA)” value [2, 12] is listed as 68.0 mg/kg and the “ED50 MES” value [3, 12] is listed as 89.7 mg/kg. For the same molecule, the TD50 [4] was 179.7 ^b mg/kg.

For `CC[C@@H](C(N)=O)N1CCCC1=O` [LEV, levetiracetam], the “ED50 6 Hz (44 mA)” value [2, 13] is listed as 204.0 mg/kg, the “ED50 MES” value ([3]; reference ASMs, pretreatment time 0.5 h (LCS, VPA) or 1.0 h (LEV, CBD), literature or own experiments) is listed as over 500 mg/kg and the TD50 [5] is listed as >500 ^c mg/kg.

For `CCCC(CCC)C(=O)O` [VPA, valproic acid, reference compound], the “ED50 6 Hz (32 mA)” value [1, 13] is listed as 130.6 mg/kg, the “GABA concentration in the cortex” value ([6]; 150 mg/kg, p < 0.05 vs PTZ-kindled control group) is listed as “significantly decreased” and the “glutamate concentration in the hippocampus” value ([6]; vs nonkindled FST control group) is listed as “slight decrease”. For the same molecule, the “mBDNF protein expression in the hippocampus (PTZ kindling-induced overexpression)” value [7] was “reversed the overexpression”, the “activity in capsaicin-induced pain” value [8] was “active only at the highest administered dose” and the “effect on kindling progression” value [9] was “suppressed kindling progression”. The “ED50 in the late phase of the formalin test” value [10] was 132.9 mg/kg.

`COc1cccc2c1C(=O)c1c(O)c3c(c(O)c1C2=O)C[C@@](O)(C(=O)CO)C[C@@H]3O[C@H]1C[C@H](N)[C@H](O)[C@H](C)O1` [doxorubicin, reference compound] gave a viability at 72 h, 1 µM [11] of about 20%.
